Active and inactive are the calls of the source. No cut-off for these calls is given here.

The subject of series [1] is MDA-MB-231. The experiment in a line: Cytotoxicity against human MDA-MB-231 cells assessed as decrease in cell proliferation at 10 uM after 48 hrs in presence of salinomycin by MTT assay. Type of series: functional, cell-based. Background: Tetrazolium assays rely on reduction of a dye to a coloured formazan, in cell work by metabolically active cells.
Series [2] relates to MDA-MB-231. Nature of the series: Cytotoxicity against human MDA-MB-231 cells assessed as decrease in cell proliferation after 48 hrs in presence of salinomycin by MTT assay. Type of series: functional, cell-based. To be noted: MDA-MB-231, 48 h.
Series [3] relates to HGC-27. Nature of the series: Potency index, ratio of salinomycin IC50 to test compound IC50 for human HGC27 cells. It is filed as functional.
Series [4] in a line: Chemical stability in RPMI1640 medium at 10 mg after 72 hrs by 1H NMR method. It is filed as physicochemical.
Series [5] deals with HT-29. The experiment in a line: Cytotoxicity against human HT-29 cells assessed as decrease in cell proliferation after 48 hrs by MTT assay. Type of series: functional, cell-based. As to conditions: HT-29, 48 h.
Series [6] relates to HGC-27. The experiment in a line: Cytotoxicity against human HGC27 cells assessed as decrease in cell proliferation after 48 hrs by MTT assay. Type of series: functional, cell-based. As to conditions: HGC-27, 48 h.
Series [7] relates to MDA-MB-231. Nature of the series: Potency index, ratio of salinomycin IC50 to test compound IC50 for human MDA-MB-231 cells. It is filed as functional.
Series [8] has as its system MDA-MB-231. Nature of the series: Cytotoxicity against human MDA-MB-231 cells assessed as decrease in cell proliferation after 48 hrs by MTT assay. Type of series: functional, cell-based. As to conditions: MDA-MB-231, 48 h.
Series [9] concerns HT-29. Nature of the series: Potency index, ratio of salinomycin IC50 to test compound IC50 for human HT-29 cells. Type of series: functional.

The IC50 is the concentration at which inhibition is half-maximal. For `C/C=C/C=C/C(=O)NO`, in the series with MDA-MB-231 [1], the outcome was inactive. Also, the IC50 in the series with MDA-MB-231 [2] was found to be 7890 nM.
In the case of `CCCCCCCC(=O)NOC(=O)[C@H](CC)[C@H]1CC[C@H](C)[C@H]([C@@H](C)[C@H](O)[C@H](C)C(=O)[C@H](CC)[C@H]2O[C@]3(C=C[C@@H](O)[C@]4(CC[C@@](C)([C@H]5CC[C@](O)(CC)[C@H](C)O5)O4)O3)[C@H](C)C[C@@H]2C)O1`, the “Ratio IC50” value in the series on HGC-27 [3], in the series on MDA-MB-231 [7] and with HT-29 [9] was 1.5 - 2.5 throughout. In series [4], the Stability result is “Stable”. Also, the IC50 in the series with HT-29 [5] was 960 nM; in the series with HGC-27 [6] it was 1350 nM; in the series with MDA-MB-231 [8], 2690 nM.
Consider `CC[C@@H](C(=O)[C@@H](C)[C@@H](O)[C@H](C)[C@@H]1O[C@@H]([C@@H](CC)C(=O)ONC(=O)Cc2ccccc2)CC[C@@H]1C)[C@H]1O[C@]2(C=C[C@@H](O)[C@]3(CC[C@@](C)([C@H]4CC[C@](O)(CC)[C@H](C)O4)O3)O2)[C@H](C)C[C@@H]1C`, for which the “Ratio IC50” value with HGC-27 [3], in the series on MDA-MB-231 [7] and in the series with HT-29 [9] was 1.5 - 7 each time. Besides, the Stability entry in [4] is “Stable”. Moreover, the figures for the IC50 with HT-29 [5], in the series with HGC-27 [6] and in the series with MDA-MB-231 [8] were 900 nM, 1290 nM and 1010 nM, respectively.
Take `CC[C@@H](C(=O)[C@@H](C)[C@@H](O)[C@H](C)[C@@H]1O[C@@H]([C@@H](CC)C(=O)ONC(=O)c2ccccc2)CC[C@@H]1C)[C@H]1O[C@]2(C=C[C@@H](O)[C@]3(CC[C@@](C)([C@H]4CC[C@](O)(CC)[C@H](C)O4)O3)O2)[C@H](C)C[C@@H]1C`: the “Ratio IC50” value in the series with HGC-27 [3], in the series with MDA-MB-231 [7] and with HT-29 [9] was 1.5 - 7 each time. Further, the Stability entry in series [4] was “Stable”. In addition, the IC50 in the series on HT-29 [5] is 850 nM; with HGC-27 [6] it was 920 nM; with MDA-MB-231 [8], 2260 nM.
Consider `CC[C@@H](C(=O)[C@@H](C)[C@@H](O)[C@H](C)[C@@H]1O[C@@H]([C@@H](CC)C(=O)ONC(C)=O)CC[C@@H]1C)[C@H]1O[C@]2(C=C[C@@H](O)[C@]3(CC[C@@](C)([C@H]4CC[C@](O)(CC)[C@H](C)O4)O3)O2)[C@H](C)C[C@@H]1C`, for which, in [4], the Stability entry was “Stable”. Moreover, the results for the IC50 with HT-29 [5], in the series on HGC-27 [6] and with MDA-MB-231 [8] were 2320 nM, 2250 nM and 3790 nM, respectively.
With `O=C(/C=C/c1ccccc1)NO`, the outcome in the series on MDA-MB-231 [1] was inactive. Moreover, the IC50 with MDA-MB-231 [2] came out at 8980 nM.
With `CC[C@@H](C(=O)[C@@H](C)[C@@H](O)[C@H](C)[C@@H]1O[C@@H]([C@@H](CC)C(=O)ONC(=O)/C=C/c2ccccc2)CC[C@@H]1C)[C@H]1O[C@]2(C=C[C@@H](O)[C@]3(CC[C@@](C)([C@H]4CC[C@](O)(CC)[C@H](C)O4)O3)O2)[C@H](C)C[C@@H]1C`, in [4], the Stability entry is “Stable”. Also, the IC50 is 7230 nM in the series with HT-29 [5], 7270 nM in the series with HGC-27 [6] and 9640 nM in the series on MDA-MB-231 [8].
Consider `CC[C@@H](C(=O)[C@@H](C)[C@@H](O)[C@H](C)[C@@H]1O[C@@H]([C@@H](CC)C(=O)ONC(=O)CCc2ccccc2)CC[C@@H]1C)[C@H]1O[C@]2(C=C[C@@H](O)[C@]3(CC[C@@](C)([C@H]4CC[C@](O)(CC)[C@H](C)O4)O3)O2)[C@H](C)C[C@@H]1C`, for which the “Ratio IC50” value in the series on HGC-27 [3], in the series on MDA-MB-231 [7] and in the series with HT-29 [9] was 1.5 - 7 in each case. Further, the Stability entry in series [4] is “Stable”. The IC50 was 800 nM in the series on HT-29 [5], 1050 nM with HGC-27 [6] and 1890 nM with MDA-MB-231 [8].
`CC(=O)O[C@H]1C(=O)[C@@]2(C)[C@H]([C@H](OC(=O)c3ccccc3)[C@]3(O)C[C@H](OC(=O)[C@H](O)[C@@H](NC(=O)c4ccccc4)c4ccccc4)C(C)=C1C3(C)C)[C@]1(OC(C)=O)CO[C@@H]1C[C@@H]2O` [PACLITAXEL]: the IC50 in the series with MDA-MB-231 [8] turned out to be 80 nM.
On to `CC[C@@H](C(=O)[C@@H](C)[C@@H](O)[C@H](C)[C@@H]1O[C@@H]([C@@H](CC)C(=O)ONC(=O)c2ccc(Br)cc2)CC[C@@H]1C)[C@H]1O[C@]2(C=C[C@@H](O)[C@]3(CC[C@@](C)([C@H]4CC[C@](O)(CC)[C@H](C)O4)O3)O2)[C@H](C)C[C@@H]1C`, for which the “Ratio IC50” value with HGC-27 [3] and in the series with MDA-MB-231 [7] was 7 each time. The Stability entry in series [4] is on record as “Stable”. Also, the IC50 worked out at 700 nM in the series with HT-29 [5], 510 nM in the series on HGC-27 [6] and 940 nM in the series on MDA-MB-231 [8].
Consider `O=C(Cc1ccccc1)NO` [PHENYLACETOHYDROXAMIC ACID], for which the outcome with MDA-MB-231 [1] was inactive. Also, the IC50 in the series with MDA-MB-231 [2] came out at 9720 nM.
As for `O=C(Cc1ccccc1Br)NO`, in the series on MDA-MB-231 [1], the outcome was inactive. For the same compound, the IC50 in the series with MDA-MB-231 [2] was > 10000 nM.
For `CC[C@@H](C(=O)[C@@H](C)[C@@H](O)[C@H](C)[C@@H]1O[C@@H]([C@@H](CC)C(=O)O)CC[C@@H]1C)[C@H]1O[C@]2(C=C[C@@H](O)[C@]3(CC[C@@](C)([C@H]4CC[C@](O)(CC)[C@H](C)O4)O3)O2)[C@H](C)C[C@@H]1C` [SALINOMYCIN], the Stability entry in series [4] was “Stable”. Besides, the figures for the IC50 in the series with HT-29 [5], with HGC-27 [6] and with MDA-MB-231 [8] were 1430 nM, 2570 nM and 6530 to 6910 nM, respectively.
Regarding `O=C(NO)c1ccc(Br)cc1`, the outcome in the series on MDA-MB-231 [1] was inactive. The IC50 in the series on MDA-MB-231 [2] was > 10000 nM.
Turning to `CC[C@@H](C(=O)[C@@H](C)[C@@H](O)[C@H](C)[C@@H]1O[C@@H]([C@@H](CC)C(=O)ONC(=O)Cc2ccccc2Br)CC[C@@H]1C)[C@H]1O[C@]2(C=C[C@@H](O)[C@]3(CC[C@@](C)([C@H]4CC[C@](O)(CC)[C@H](C)O4)O3)O2)[C@H](C)C[C@@H]1C`, the Stability entry in [4] is on record as “Stable”. In addition, the IC50 is 800 nM in the series with HT-29 [5], 760 nM with HGC-27 [6] and 930 nM with MDA-MB-231 [8].
Taken in the same sequence, the figures for `C/C=C/C=C/C(=O)NOC(=O)[C@H](CC)[C@H]1CC[C@H](C)[C@H]([C@@H](C)[C@H](O)[C@H](C)C(=O)[C@H](CC)[C@H]2O[C@]3(C=C[C@@H](O)[C@]4(CC[C@@](C)([C@H]5CC[C@](O)(CC)[C@H](C)O5)O4)O3)[C@H](C)C[C@@H]2C)O1` were “Stable”, 2310 nM, 2630 nM and 3820 nM.
Taken in the same sequence, the figures for `CC[C@@H](C(=O)[C@@H](C)[C@@H](O)[C@H](C)[C@@H]1O[C@@H]([C@@H](CC)C(=O)ONC(=O)c2ccccc2O)CC[C@@H]1C)[C@H]1O[C@]2(C=C[C@@H](O)[C@]3(CC[C@@](C)([C@H]4CC[C@](O)(CC)[C@H](C)O4)O3)O2)[C@H](C)C[C@@H]1C` were “Stable”, 880 nM, 920 nM and 2780 nM.
With `O=C(NO)c1ccccc1` [BENZOHYDROXAMATE], in the series on MDA-MB-231 [1], the result was inactive. The IC50 in the series on MDA-MB-231 [2] stood at 9850 nM.

The values are drawn from ChEMBL document CHEMBL4004885, “Synthesis and biological activity of salinomycin-hydroxamic acid conjugates” (Bioorg Med Chem Lett, 2017).
